Source: patent US11638707B2, “Substituted amino triazoles useful as chitinase inhibitors” (Molecure S.A., priority 2019, dated 2023)

Assays:
recombinant human CHIT1 = recombinant human CHIT1 (Homo sapiens (Human), UniProt Q13231); assay: Human CHIT1 activity assay; assay type: biochemical; conditions: recombinant human CHIT1, citrate buffer pH 5.2, 37° C., 60 minutes; read-out: hCHIT1, IC50
Procedure, shortened: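 Recombinant human CHIT1 hydrolysed 4-methylumbelliferyl β-D-N,N′,N″-triacetylchitotriose in citrate buffer, pH 5.2, for 60 minutes at 37° C in the dark with shaking. Released 4MU was read by fluorescence at 460 nm under basic pH; IC50 values were calculated from dilution series.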

recombinant human AMCase = recombinant human AMCase (Homo sapiens (Human), UniProt Q9BZP6); assay: Human AMCase activity assay; assay type: biochemical; conditions: citrate buffer pH 5.2, 37° C., 60 minutes, read-out: hAMCase, IC50
Chain of recombinant human AMCase (Q9BZP6 22-476): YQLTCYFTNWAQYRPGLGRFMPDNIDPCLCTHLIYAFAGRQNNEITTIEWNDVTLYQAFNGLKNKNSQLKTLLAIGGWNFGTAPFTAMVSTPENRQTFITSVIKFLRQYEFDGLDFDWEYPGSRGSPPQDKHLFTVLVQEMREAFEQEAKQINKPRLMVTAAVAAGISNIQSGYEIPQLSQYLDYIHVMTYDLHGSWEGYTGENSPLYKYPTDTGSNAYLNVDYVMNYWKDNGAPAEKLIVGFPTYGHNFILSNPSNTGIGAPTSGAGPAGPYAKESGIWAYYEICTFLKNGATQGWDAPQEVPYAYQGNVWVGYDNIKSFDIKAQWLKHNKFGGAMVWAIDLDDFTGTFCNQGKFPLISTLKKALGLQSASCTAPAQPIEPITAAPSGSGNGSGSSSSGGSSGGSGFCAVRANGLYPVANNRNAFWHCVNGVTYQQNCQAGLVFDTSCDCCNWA
Procedure, shortened: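 Recombinant hAMCase hydrolysed 4-methylumbelliferyl β-D-N,N′-diacetylchitobioside in citrate buffer pH 5.2, run 60 min at 37 °C in the dark with shaking. Released 4MU fluorescence was read at 460 nm under basic pH, and IC50 values were fitted from the compound dilutions.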

hERG channel = hERG channel (Homo sapiens (Human), UniProt Q12809); assay: Human ERG channel binding assay (fluorescence polarization); conditions: Table 1; tracer displacement, 4 h at room temperature
Chain of hERG channel (Q12809 whole entry): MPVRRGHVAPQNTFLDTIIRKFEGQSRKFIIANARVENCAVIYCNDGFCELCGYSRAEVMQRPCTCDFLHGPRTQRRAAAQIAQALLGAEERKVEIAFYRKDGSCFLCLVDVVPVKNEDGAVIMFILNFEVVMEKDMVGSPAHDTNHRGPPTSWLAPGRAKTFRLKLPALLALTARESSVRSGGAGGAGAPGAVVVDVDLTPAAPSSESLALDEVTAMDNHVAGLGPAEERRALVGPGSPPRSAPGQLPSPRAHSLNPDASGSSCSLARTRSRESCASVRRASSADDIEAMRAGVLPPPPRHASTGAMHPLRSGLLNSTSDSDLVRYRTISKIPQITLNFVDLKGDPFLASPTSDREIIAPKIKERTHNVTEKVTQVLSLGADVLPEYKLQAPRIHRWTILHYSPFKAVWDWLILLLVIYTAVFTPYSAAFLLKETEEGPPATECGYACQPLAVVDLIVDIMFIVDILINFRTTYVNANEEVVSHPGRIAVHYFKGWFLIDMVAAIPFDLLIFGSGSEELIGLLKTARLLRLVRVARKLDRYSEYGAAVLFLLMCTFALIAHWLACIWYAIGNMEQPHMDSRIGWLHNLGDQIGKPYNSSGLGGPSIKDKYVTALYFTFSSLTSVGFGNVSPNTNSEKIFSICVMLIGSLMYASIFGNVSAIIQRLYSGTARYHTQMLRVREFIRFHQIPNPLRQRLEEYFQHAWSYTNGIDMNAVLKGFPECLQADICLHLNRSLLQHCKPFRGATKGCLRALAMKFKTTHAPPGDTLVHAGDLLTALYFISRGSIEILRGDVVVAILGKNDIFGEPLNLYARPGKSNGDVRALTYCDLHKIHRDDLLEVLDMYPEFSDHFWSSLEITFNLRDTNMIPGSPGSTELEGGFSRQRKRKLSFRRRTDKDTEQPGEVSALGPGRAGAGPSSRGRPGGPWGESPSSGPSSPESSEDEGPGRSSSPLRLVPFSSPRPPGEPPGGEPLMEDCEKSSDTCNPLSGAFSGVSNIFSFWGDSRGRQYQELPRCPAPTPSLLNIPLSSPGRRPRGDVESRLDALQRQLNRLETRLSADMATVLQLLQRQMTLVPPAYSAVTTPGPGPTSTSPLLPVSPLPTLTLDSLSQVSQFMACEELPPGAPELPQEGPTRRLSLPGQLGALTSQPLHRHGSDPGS
Procedure, shortened: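 Serially diluted compounds were incubated with a hERG-containing membrane fraction and a high-affinity red-shifted fluorescent hERG ligand. Displacement of the tracer was read by fluorescence polarization, and IC50 values were derived from the concentration-response curves.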

Chain of recombinant human CHIT1 (Q13231 22-466): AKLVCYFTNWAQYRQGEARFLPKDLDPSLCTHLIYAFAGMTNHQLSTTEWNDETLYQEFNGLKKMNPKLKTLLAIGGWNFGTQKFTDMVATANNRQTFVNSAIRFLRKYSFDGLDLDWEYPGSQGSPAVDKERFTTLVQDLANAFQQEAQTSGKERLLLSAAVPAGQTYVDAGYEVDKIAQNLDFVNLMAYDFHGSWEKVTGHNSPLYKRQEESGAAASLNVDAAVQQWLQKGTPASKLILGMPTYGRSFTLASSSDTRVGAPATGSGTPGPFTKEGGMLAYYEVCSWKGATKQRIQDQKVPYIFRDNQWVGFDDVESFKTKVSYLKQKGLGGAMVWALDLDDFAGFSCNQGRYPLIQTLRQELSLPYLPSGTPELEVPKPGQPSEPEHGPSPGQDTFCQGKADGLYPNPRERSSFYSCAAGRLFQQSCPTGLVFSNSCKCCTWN

| IC50 (recombinant human CHIT1) [µM] | IC50 (recombinant human AMCase) [µM] | Compound | IC50 (hERG channel) [µM] |
| --- | --- | --- | --- |
| < 0.1 | < 0.1 | Nc1nnc(N2CCC(N3C[C@H](COCC(F)(F)F)OC[C@@H]3Cc3ccc(Cl)cc3)CC2)[nH]1 [Example 39, 5-(4-((2R,5S)-5-(4-chlorobenzyl)-2-((2,2,2-trifluoroethoxy)methyl)morpholino)-piperidin-1-yl)-4H-1,2,4-triazol-3-amine 2,2,2-trifluoroacetate] | 1 to 10 |
| < 0.1 | < 0.1 | Nc1nnc(N2CCC(N3C[C@H](CF)OC[C@@H]3Cc3ccc(Cl)cc3)CC2)[nH]1 [Example 3, 5-(4-((2R,5S)-5-(4-chlorobenzyl)-2-(fluoromethyl)morpholino)piperidin-1-yl)-4H-1,2,4-triazol-3-amine 2,2,2-trifluoroacetate] | > 100 |
| < 0.1 | < 0.1 | CC(C)(O)[C@H]1CN(C2CCN(c3nnc(N)[nH]3)CC2)[C@@H](Cc2ccc(Br)cc2)CO1 [Example 64, 2-((2R,5S)-4-(1-(5-amino-4H-1,2,4-triazol-3-yl)piperidin-4-yl)-5-(4-bromobenzyl)-morpholin-2-yl)propan-2-ol 2,2,2-trifluoroacetate] | > 100 |
| < 0.1 | < 0.1 | Nc1nnc(N2CCC(N3C[C@H](Cn4cc(Cl)cn4)OC[C@@H]3Cc3ccc(Cl)cc3)CC2)[nH]1 [Example 44, 5-(4-((2R,5S)-2-((4-chloro-1H-pyrazol-1-yl)methyl)-5-(4-chlorobenzyl)-morpholino)piperidin-1-yl)-4H-1,2,4-triazol-3-amine 2,2,2-trifluoroacetate] | 1 to 10 |
| 0.1 to 1 | < 0.1 | Nc1nnc(N2CCC(N3C[C@H](CN4CC[C@H](O)C4)OC[C@@H]3Cc3ccc(Cl)cc3)CC2)[nH]1 [Example 30, (S)-1-(((2S,5S)-4-(1-(5-amino-4H-1,2,4-triazol-3-yl)piperidin-4-yl)-5-(4-chlorobenzyl)morpholin-2-yl)methyl)pyrrolidin-3-ol 2,2,2-trifluoroacetate] | > 100 |
| 0.1 to 1 | < 0.1 | Nc1nnc(N2CCC(N3C[C@H](C(=O)N4CCC(F)(F)CC4)OC[C@@H]3Cc3ccc(Cl)cc3)CC2)[nH]1 [Example 53, ((2R,5S)-4-(1-(5-amino-4H-1,2,4-triazol-3-yl)piperidin-4-yl)-5-(4-chlorobenzyl)-morpholin-2-yl)(4,4-difluoropiperidin-1-yl)methanone 2,2,2-trifluoroacetate] | 25 to 100 |
| < 0.1 | < 0.1 | Nc1nnc(N2CCC(N3C[C@H](Cn4cc(F)cn4)OC[C@@H]3Cc3ccc(Cl)cc3)CC2)[nH]1 [Example 36, 5-(4-((2R,5S)-5-(4-chlorobenzyl)-2-((4-fluoro-1H-pyrazol-1-yl)methyl)-morpholino)piperidin-1-yl)-4H-1,2,4-triazol-3-amine 2,2,2-trifluoroacetate] | 10 to 25 |
| < 0.1 | < 0.1 | CNS(=O)(=O)CCNC(=O)[C@H]1CN(C2CCN(c3nnc(N)[nH]3)CC2)[C@@H](Cc2ccc(Cl)cc2)CO1 [Example 46, (2R,5S)-4-(1-(5-amino-4H-1,2,4-triazol-3-yl)piperidin-4-yl)-5-(4-chlorobenzyl)-N-(2-(N-methylsulfamoyl)ethyl)morpholine-2-carboxamide 2,2,2-trifluoroacetate] | > 100 |
| < 0.1 | < 0.1 | CS(=O)(=O)CCNC(=O)[C@H]1CN(C2CCN(c3nnc(N)[nH]3)CC2)[C@@H](Cc2ccc(Cl)cc2)CO1 [Example 45, (2R,5S)-4-(1-(5-amino-4H-1,2,4-triazol-3-yl)piperidin-4-yl)-5-(4-chlorobenzyl)-N-(2-(methylsulfonyl)ethyl)morpholine-2-carboxamide 2,2,2-trifluoroacetate] | > 100 |
